Results reported in patent publication US8865865B2, “N-terminally modified tetrapeptide derivatives having a C-terminal arginine mimetic” (Philipps-Universitat Marburg, priority 2008, dated 2014).
Where two headings read alike, the source gives them in different places. Square brackets hold non-standard residues; d marks the D form. Peptide text beside a SMILES is read from it. * marks the point of attachment. hArg = N=C(N)NCCCC[C@H](N)C(=O)O; Agmatine = N=C(N)NCCCCN*; PhAc = O=C(Cc1ccccc1)*

Legend:
[1] = system: MDCK cells; settings: 25 μM inhibitor, 72 h
[2] = system: avian influenza virus (FPV) A/FPV/Rostock/34 (H7N1); format: cell-based, influenza virus A/FPV/Rostock/34 (H7N1); settings: 25 μM inhibitor, MDCK cells, MOI 10^-5, 72 h
[3] = target: T1, Recombinantly produced human furin (Homo sapiens, UniProt P09958); assay: Enzyme kinetic studies to determine the inhibitory effect on furin (fluorogenic substrate Pyr-Arg-Thr-Lys-Arg-AMC); format: biochemical
T1 construct: made in house
Experimental: The determination of the inhibitory effect was carried out with a fluorescence plate reader Safire^2 from the Tecan company (λEx=380 nm, λEm=460 nm) and Pyr-Arg-Thr-Lys-Arg-AMC (Bachem, No: I-1650) as the substrate. Recombinantly produced human furin (Kacprzak, M. M. et al., J. Biol. Chem., 2004, 279, 36788-36794) was used in the measurement assay in a concentration of approx. 0.95 nM.
To determine the inhibition constants, the inhibitor concentration was varied at least over the range of an order of magnitude at a constant substrate concentration (12.5 μM in the assay), and, respectively, the steady-state velocity was determined. Km and Vmax were determined by means of v/S characteristics parallel to each inhibitor measurement. The calculation of Ki values was carried out through adjustment of the determined velocities as a function of the inhibitor concentration to the velocity equation for competitively, reversibly-binding inhibitors: […]

[4] = target: furin (Homo sapiens, UniProt P09958); settings: Kacprzak et al., J. Biol. Chem. 2004; read-out: inhibition constant (Ki value) for furin; cited from earlier work
[5] = Table 2, substrate 12.5 μM, furin approx. 0.95 nM, competitive reversible model, read-out: Ki value for the inhibition of furin
[6] = Table 3, methods as in practical embodiment 6, read-out: Ki for the inhibition of furin

T1 sequence (P09958 108-794): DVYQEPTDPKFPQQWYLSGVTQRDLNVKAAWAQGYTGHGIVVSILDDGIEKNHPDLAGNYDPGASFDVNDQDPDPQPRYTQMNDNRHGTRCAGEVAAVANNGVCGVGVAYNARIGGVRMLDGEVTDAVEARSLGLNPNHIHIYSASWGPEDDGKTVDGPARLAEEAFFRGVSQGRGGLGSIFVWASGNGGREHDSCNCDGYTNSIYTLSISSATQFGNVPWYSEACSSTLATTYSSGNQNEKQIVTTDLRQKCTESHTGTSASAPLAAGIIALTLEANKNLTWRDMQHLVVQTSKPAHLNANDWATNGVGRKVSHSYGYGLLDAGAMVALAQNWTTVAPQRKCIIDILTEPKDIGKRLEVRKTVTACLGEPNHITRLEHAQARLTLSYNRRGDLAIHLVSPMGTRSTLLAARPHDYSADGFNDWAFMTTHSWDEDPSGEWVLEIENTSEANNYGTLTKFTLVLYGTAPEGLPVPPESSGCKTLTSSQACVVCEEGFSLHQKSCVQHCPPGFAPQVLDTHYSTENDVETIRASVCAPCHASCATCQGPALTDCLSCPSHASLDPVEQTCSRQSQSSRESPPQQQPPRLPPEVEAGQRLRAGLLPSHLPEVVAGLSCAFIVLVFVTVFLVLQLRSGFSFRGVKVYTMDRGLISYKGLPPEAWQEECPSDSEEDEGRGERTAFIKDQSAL
Sequence of furin (P09958 108-794, species assumed): as the sequence (P09958 108-794) above

| Compound | Ki [3, 5] [nM] | Ki [3, 6] [nM] | further results |
| --- | --- | --- | --- |
| CC(C)[C@H](NC(=O)[C@H](CCCNC(=N)N)NC(=O)Cc1ccccc1)C(=O)N[C@@H](CCCNC(=N)N)C(=O)NCc1ccc(C(=N)N)cc1 [Inhibitor 1] | – | – | vitality of the cells [1]: not influenced; delay of virus release in relation to the untreated control group [2]: about 24 h |
| CC(C)[C@H](NC(=O)[C@H](CCCNC(=N)N)NC(=O)Cc1ccccc1)C(=O)N[C@@H](CCCNC(=N)N)C(=O)NCCCCNC(=N)N [Inhibitor 2] (PhAc-Arg-Val-Arg-Agmatine) | 77 | – | – |
| CC(C)C(NC(=O)C(CCCNC(=N)N)NC(=O)Cc1ccccc1)C(=O)NC(CCCNC(=N)N)C(=O)NCCCCN (stereo not drawn) [Inhibitor 2a] | 25000 | – | – |
| CC(C)C(NC(=O)C(CCCNC(=N)N)NC(=O)Cc1ccccc1)C(=O)NC(CCCNC(=N)N)C(=O)NCC1CCNCC1 (stereo not drawn) [Inhibitor 3a] | 10000 | – | – |
| CC(C)C(NC(=O)C(CCCNC(=N)N)NC(=O)Cc1ccccc1)C(=O)NC(CCCNC(=N)N)C(=O)NCCCNC(=N)N (stereo not drawn) [Inhibitor 4] | 97 | – | – |
| CC(C)C(NC(=O)C(CCCNC(=N)N)NC(=O)Cc1ccccc1)C(=O)NC(CCCNC(=N)N)C(=O)NCCCN (stereo not drawn) [Inhibitor 4a] | 1300 | – | – |
| CC(C)[C@H](NC(=O)[C@H](CCCNC(=N)N)NC(=O)Cc1ccccc1)C(=O)N[C@@H](CCCCN)C(=O)NCCCCNC(=N)N [Inhibitor 10] (PhAc-Arg-Val-Lys-Agmatine) | 49 | – | – |
| CC(C)[C@H](NC(=O)[C@H](CCCNC(=N)N)NC(=O)Cc1ccccc1)C(=O)N[C@@H](CCCCNC(=N)N)C(=O)NCCCCNC(=N)N [Inhibitor 11] (PhAc-Arg-Val-[hArg]-Agmatine) | 47 | – | – |
| CC(=O)NC(CCCNC(=N)N)C(=O)NC(C(=O)NC(CCCNC(=N)N)C(=O)NCCCCN)C(C)C (stereo not drawn) [Inhibitor 12] | – | 41200 | – |
| CC(C)C(NC(=O)C(CCCNC(=N)N)NC(=O)Cc1ccccc1)C(=O)NC(CCCCN)C(=O)NCCCCN (stereo not drawn) [Inhibitor 14] | – | 5410 | – |
| CC(C)C(NC(=O)C(CCCNC(=N)N)NC(=O)Cc1ccccc1)C(=O)NC(CCCNC(=N)N)C(=O)NCC1CCNCC1 (stereo not drawn) [Inhibitor 15] | – | 9710 | – |
| CCCC(=O)NC(CCCNC(=N)N)C(=O)NC(C(=O)NC(CCCNC(=N)N)C(=O)NCc1ccc(C(=N)N)cc1)C(C)C (stereo not drawn) [Inhibitor 17] | – | 0.77 | – |
| CCCCCC(=O)NC(CCCNC(=N)N)C(=O)NC(C(=O)NC(CCCNC(=N)N)C(=O)NCc1ccc(C(=N)N)cc1)C(C)C (stereo not drawn) [Inhibitor 18] | – | 0.82 | – |
| CCCCCCCC(=O)NC(CCCNC(=N)N)C(=O)NC(C(=O)NC(CCCNC(=N)N)C(=O)NCc1ccc(C(=N)N)cc1)C(C)C (stereo not drawn) [Inhibitor 19] | – | 0.82 | – |
| CCCCCCCCCCCC(=O)NC(CCCNC(=N)N)C(=O)NC(C(=O)NC(CCCNC(=N)N)C(=O)NCc1ccc(C(=N)N)cc1)C(C)C (stereo not drawn) [Inhibitor 21] | – | 6.7 | – |
| CCCCCCCCCCCCCC(=O)NC(CCCNC(=N)N)C(=O)NC(C(=O)NC(CCCNC(=N)N)C(=O)NCc1ccc(C(=N)N)cc1)C(C)C (stereo not drawn) [Inhibitor 22] | – | 56.9 | – |
| CC(C)C(NC(=O)C(N)CCCNC(=N)N)C(=O)NC(CCCNC(=N)N)C(=O)NCc1ccc(C(=N)N)cc1 (stereo not drawn) [Inhibitor 26] | – | 7.6 | – |
| CC(C)C(NC(=O)C(CCCNC(=N)N)NC(=O)Cc1ccc(Cl)c(Cl)c1)C(=O)NC(CCCNC(=N)N)C(=O)NCc1ccc(C(=N)N)cc1 (stereo not drawn) [Inhibitor 28] | – | 1.2 | – |
| Cc1ccc(S(=O)(=O)NC(CCCNC(=N)N)C(=O)NC(C(=O)NC(CCCNC(=N)N)C(=O)NCc2ccc(C(=N)N)cc2)C(C)C)cc1 (stereo not drawn) [Inhibitor 29] | – | 4.8 | – |
| CC(C)C(NC(=O)C(CCCNC(=N)N)NC(=O)Cc1ccccc1)C(=O)NC(CCCCN)C(=O)NCc1ccc(C(=N)N)cc1 (stereo not drawn) [Inhibitor 33] | – | 1.5 | – |
| N=C(N)NCCCC(NC(=O)Cc1ccccc1)C(=O)NC(CN)C(=O)NC(CCCCN)C(=O)NCc1ccc(C(=N)N)cc1 (stereo not drawn) [Inhibitor 39] | – | 3.7 | – |
| Nona-D-arginine-amide | – | – | Ki [4]: 1.3 nM |
| hexa-D-arginine-amide | – | – | Ki [4]: 7.6 nM |
